According to patent publication US9669036B2, “Modulation of reactivation of a latent virus” (priority 2013, dated 2017):

Test system: latent HSV-1(F)
Assay type: cell-based
Conditions: for Significant Activation of Latent HSV / lowest effective concentration: ganglionic organ cultures in medium containing NGF and EGF; for Significant Activation of Latent HSV: three concentrations tested; for lowest effective concentration: activation of latent HSV; for reactivation of HSV in trigeminal ganglia: ganglia harvested 30 days after infection, TSA 400 nM, MS275 or MC1568 10 μM, 20 μM; for accumulation of viral mRNAs with cycloheximide compared with the drug alone / amounts of the LAT and miRNAs in cycloheximide-treated ganglia compared with the drug alone: cycloheximide 150 μg/ml, TSA 400 nM or NSC74859 10 μM
[1] = NGF+EGF medium, 24 h, CTB 200 μM, 500 μM
[2] = medium containing NGF and EGF, 24 h

CCOc1ccccc1C(=O)Nc1ccc(Cl)c(C(F)(F)F)c1 [CTB, N-(4-Chloro-3-trifluoromethyl-phenyl)-2-ethoxy-benzamide]
decrease of miRNAs and the LAT following exposure to the drug [1]: approximately 10 fold
increase of all viral mRNAs following exposure to the drug [1]: approximately 50 fold

Cc1sc2c(c1C)C(c1ccc(Cl)cc1)=N[C@@H](CC(=O)OC(C)(C)C)c1nnc(C)n1-2 [JQ1]
Significant Activation of Latent HSV (24 h after excision): No

Cn1c(=O)n(-c2ccc(C(C)(C)C#N)cc2)c2c3cc(-c4cnc5ccccc5c4)ccc3ncc21 [BEZ-235]
lowest effective concentration (24 h): 40 nM lowest effective
Significant Activation of Latent HSV (24 h after excision): Yes

COc1cc(/C=C/C(=O)CC(=O)/C=C/c2ccc(O)c(OC)c2)ccc1O [curcumin]
reactivation of HSV and degradation of the LAT and miRNAs (curcumin 100 μM, 300 μM, 24 h, independent of medium (NGF+EGF or antibody to NGF)): blocked
accumulation of the LAT (curcumin at the higher concentration (300 μM)): suppressed
accumulation of small amounts of mRNAs normally detected at the time of excision of the ganglia (medium containing antibody to NGF, compared with freshly excised ganglia): suppressed

COc1cc2c(NC3CCN(C(C)C)CC3)nc(C3CCCCC3)nc2cc1OCCCN1CCCC1 [UNC0638]
Significant Activation of Latent HSV (24 h after excision): No

CO[C@H]1C[C@@H]2CC[C@@H](C)[C@@](O)(O2)C(=O)C(=O)N2CCCC[C@H]2C(=O)O[C@H]([C@H](C)C[C@@H]2CC[C@@H](O)[C@H](OC)C2)CC(=O)[C@H](C)/C=C(\C)[C@@H](O)[C@@H](OC)C(=O)[C@H](C)C[C@H](C)/C=C/C=C/C=C/1C [Rapamycin]
lowest effective concentration (24 h): 1 nM lowest effective

NC1(c2ccc(-c3nc4ccn5c(=O)[nH]nc5c4cc3-c3ccccc3)cc2)CCC1 [MK-2206]
lowest effective concentration (24 h): 2.5 nM lowest effective
Significant Activation of Latent HSV (24 h after excision): Yes

Cn1cc(/C=C/C(=O)c2cccc(F)c2)cc1/C=C/C(=O)NO [MC1568, (E)-3-(4-((E)-3-(3-fluorophenyl)-3-oxoprop-1-enyl)-1-methyl-1H-pyrrol-2-yl)-N-hydroxyacrylamide]
reactivation of HSV in trigeminal ganglia [2]: induced the reactivation of HSV

Cc1ccc(S(=O)(=O)OCC(=O)Nc2ccc(C(=O)O)c(O)c2)cc1 [NSC74859]
accumulation of viral mRNAs with cycloheximide compared with the drug alone (NGF+EGF medium, 24 h): consistently lower
amounts of the LAT and miRNAs in cycloheximide-treated ganglia compared with the drug alone (NGF+EGF medium, 24 h): higher
representatives of all four temporally regulated groups of viral genes (ICP27, TK, VP16, UL41 mRNAs) (NGF+EGF medium, 24 h after excision, NSC74859 10 mM and 50 μM): upregulated

CC(/C=C/C(=O)NO)=C\[C@@H](C)C(=O)c1ccc(N(C)C)cc1 [TSA, Trichostatin A]
accumulation of viral mRNAs with cycloheximide compared with the drug alone (NGF+EGF medium, 24 h): similar
amounts of the LAT and miRNAs in cycloheximide-treated ganglia compared with the drug alone (NGF+EGF medium, 24 h): higher
accumulation of mRNAs relative to freshly excised ganglia (NGF+EGF+TSA (400 nM), with or without cycloheximide 150 μg/ml, 24 h): 10 fold
reactivation of HSV in trigeminal ganglia [2]: induced the reactivation of HSV

C[C@@H]1CCN(C(=O)CC#N)C[C@@H]1N(C)c1ncnc2[nH]ccc12 [Tofacitinib]
Significant Activation of Latent HSV (24 h after excision): No

CS(=O)(=O)N1CCN(Cc2cc3nc(-c4cccc5[nH]ncc45)nc(N4CCOCC4)c3s2)CC1 [GDC-0941]
lowest effective concentration (24 h): 10 nM lowest effective
Significant Activation of Latent HSV (24 h after excision): Yes

O=C(Nc1ccc2c(O)cc(S(=O)(=O)O)cc2c1)Nc1ccc2c(O)cc(S(=O)(=O)O)cc2c1 [AMI-1]
Significant Activation of Latent HSV (24 h after excision): No
Comments: activation of latent HSV (medium containing NGF and EGF, all concentrations tested): No activation

Nc1ccccc1NC(=O)c1ccc(CNC(=O)OCc2cccnc2)cc1 [MS275, pyridin-3-ylmethyl 4-((2-aminophenyl)carbamoyl)benzylcarbamate]
reactivation of HSV in trigeminal ganglia [2]: induced the reactivation of HSV

Cc1[nH]c2ccccc2c1CCNCc1ccc(/C=C/C(=O)NO)cc1 [Panobinostat]
lowest effective concentration (24 h): 0.5 nM lowest effective
